Assay [1] addresses T1, KRasG12C (Homo sapiens, UniProt P01116, G12C).
T1 construct: biotin (biotinylated); made in house
Put plainly: KRasG12C functional assay (HTRF, SOS-mediated nucleotide exchange / Raf RBD binding). The settings on record: 4 hrs incubation with GDP loaded biotinylated KRasG12C, single experiment or average of two or more. In kind it is biochemical. On the procedure: KRasG12C Functional Assay
All enzyme and substrate solutions were prepared in assay buffer containing 20 mM HEPES (pH 7.5), 5 mM MgCl2, 150 mM NaCl, and 0.01% Tween 20. […] In a separate mix 20 nM GST-Raf Ras binding domain (GST-Raf RBD, purified in house) and 4 μg/ml anti-GST XL665 antibody (Cisbio) was prepared in assay buffer containing 50 mM Potassium Fluoride and 0.05 mg/ml BSA and equilibrated for 4 hours before adding 0.6 μM Guanosine 5′-[γ-thio]triphosphate (GTPγS, Sigma) and 0.08 μM SOS (purified in house). 5 μl of the GST-RAF RBD mix was then dispensed into each well of the assay plate. […] This is detected simultaneously via the specific binding interaction between active GTPγS KRas^G12C with GST-Raf RBD which brings the europium and XL665 into close proximity enabling an increased FRET signal to be detected on a Pherastar (BMG) plate reader equipped with the HTRF filter module. […] IC50 values were calculated from normalised dose-response response FRET data curve fitted in Genedata screener (Basel, Switzerland).
For orientation: Time-resolved FRET reads energy transfer from a long-lived donor to a nearby acceptor.

For assay [2], the target named is T1, KRasG12C. Put plainly: KRasG12C mass spectrometry adducting assay. Format: binding. The settings on record: 10 μM test compound, 4 μM GDP loaded KRasG12C, 4 hours. The method, then:
KRasG12C Mass Spectrometry Adducting Assay
Enzyme solutions were prepared in assay buffer containing 20 mM HEPES (pH 7.5), 5 mM MgCl2, and 150 mM NaCl. […] The plate was sealed before reading on a Xevo G2 QTOF (Waters) and Acquity LC system (Waters). 10 μl of sample was injected onto a Xbridge BEH300; C4; 3.5 um; 2.1×50 mm column (Waters) running a 3 minute gradient. Blank samples were run in between each test sample.
Data was analysed in Mass Lynx software (Waters), the Total ion count (TIC) trace was used and the eluted protein peak data combined. Using the combined spectrum the data was deconvoluted using MaxEnt1 method. The peak area for apo-protein KRas^G12C (APO) and KRAS+relative cmpd mass (adduct) were measured, and a percentage adduct was calculated using the following calculation: Percent adduct=100*(area of adduct peak/(sum of APO+adduct peaks)

Setting [3] is: read-out: KRasG12C functional assay IC50 value.
Setting [4] is: KRasG12C functional assay IC50 value.

pIC50: −log10 of the molar value. Where two headings read alike, the source gives them in different places.

T1 sequence (P01116 1-188 isoform P01116-2 G12C): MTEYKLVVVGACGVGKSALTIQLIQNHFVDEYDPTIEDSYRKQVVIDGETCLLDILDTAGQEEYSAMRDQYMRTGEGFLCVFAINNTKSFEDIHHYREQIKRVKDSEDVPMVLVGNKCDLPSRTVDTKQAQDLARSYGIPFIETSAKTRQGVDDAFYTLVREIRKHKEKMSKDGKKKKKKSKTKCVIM

In general, pIC50 refers to the negative decadic logarithm of the IC50, by convention in mol/L. In the case of `C=CC(=O)N1CCN2c3ncnc4c(F)c(-c5c(C)ccc6c5C(=O)NC6)c(Cl)c(c34)OC[C@@H]2C1` (single isomer, unassigned) [Example 1], the negative-log IC50 (pIC50) on KRasG12C [1] (setting [3]) is 7.72. At KRasG12C [2], the “KRasG12C M. S. Binding Mean adduct %” value stood at 98%.
On the same counts, the results for `C=CC(=O)N1CCN2c3ncnc4c(F)c(-c5c(C)ccc6c5C(=O)NC6)c(Cl)c(c34)OC[C@@H]2C1` (single isomer, unassigned) [Example 2] are 6.54 and 25%.
For the molecule `C=CC(=O)N1C[C@H]2COc3c(Cl)c(-c4c(O)cccc4F)c(F)c4ncnc(c34)N2C[C@H]1C` (single isomer, unassigned) [Example 5], the pIC50 at KRasG12C [1] (setting [3]) is 5.20. In addition, the “KRasG12C M. S. Binding Mean adduct %” value on KRasG12C [2] amounted to 14%.
`C=CC(=O)N1CCN2c3ncnc4c(F)c(-c5c(C)ccc6nc[nH]c(=O)c56)c(Cl)c(c34)OC[C@@H]2C1` (single isomer, unassigned) [Example 6]: the pIC50 on KRasG12C [1] (setting [3]) is 7.01. In addition, the “KRasG12C M. S. Binding Mean adduct %” value at KRasG12C [2] turned out to be 95%.
On to `C=CC(=O)N1CCN2c3ncnc4c(F)c(-c5c(C)ccc6nc[nH]c(=O)c56)c(Cl)c(c34)OC[C@@H]2C1` (single isomer, unassigned) [Example 7], for which, on KRasG12C [1] (setting [3]), the pIC50 was 5.12.
In the case of `C=CC(=O)N1CCN2c3ncnc4c(F)c(-c5c(C)ccc6[nH]cnc56)c(Cl)c(c34)OC[C@@H]2C1` (single isomer, unassigned) [Example 8], the negative-log IC50 (pIC50) on KRasG12C [1] (setting [3]) is 7.92. Besides, the “KRasG12C M. S. Binding Mean adduct %” value on KRasG12C [2] is on record as 96%.
On to `C=CC(=O)N1CCN2c3ncnc4c(F)c(-c5c(C)ccc6[nH]cnc56)c(Cl)c(c34)OC[C@@H]2C1` (single isomer, unassigned) [Example 9], for which the negative-log IC50 (pIC50) on KRasG12C [1] (setting [3]) was 6.64. Further, the “KRasG12C M. S. Binding Mean adduct %” value on KRasG12C [2] is 22%.
For `C=CC(=O)N1CCN2c3ncnc4c(F)c(-c5c(C)cccc5O)c(Cl)c(c34)OC[C@@H]2C1` (single isomer, unassigned) [Example 12] the same measures were 7.51 and 95%.
Turning to `C=CC(=O)N1CCN2c3ncnc4c(F)c(-c5c(C)cccc5O)c(Cl)c(c34)OC[C@@H]2C1` (single isomer, unassigned) [Example 13], the pIC50 on KRasG12C [1] (setting [3]) was 5.01.
As to `CN(C)C/C=C/C(=O)N1CCN2c3ncnc4c(F)c(-c5c(O)cccc5F)c(Cl)c(c34)OC[C@@H]2C1` (single isomer, unassigned) [Example 14], the pIC50 at KRasG12C [1] (setting [3]) was 7.23. The “KRasG12C M. S. Binding Mean adduct %” value on KRasG12C [2] stood at 94%.
As for `CN(C)C/C=C/C(=O)N1CCN2c3ncnc4c(F)c(-c5c(O)cccc5F)c(Cl)c(c34)OC[C@@H]2C1` (single isomer, unassigned) [Example 15], the pIC50 at KRasG12C [1] (setting [3]) is 4.71.
The same measure, in the same setting: the result for `C=CC(=O)N1CCN2c3ncnc4c(F)c(-c5c(F)ccc6[nH]cnc56)c(Cl)c(c34)OC[C@@H]2C1` (single isomer, unassigned) [Example 21] reads 5.88.
As for `C=CC(=O)N1CCN2c3ncnc4c(F)c(-c5c(F)ccc6[nH]ncc56)c(Cl)c(c34)OC[C@@H]2C1` (single isomer, unassigned) [Example 23], the pIC50 on KRasG12C [1] (setting [3]) was 5.05.
Turning to `C=CC(=O)N1CCN2c3ncnc4c(F)c(-c5c(F)ccc6c5ncn6C)c(Cl)c(c34)OC[C@@H]2C1` (single isomer, unassigned) [Example 25], on KRasG12C [1] (setting [3]), the pIC50 is 4.86.
In the case of `C=CC(=O)N1CCN2c3ncnc4c(F)c(-c5c(F)ccc6[nH]nnc56)c(Cl)c(c34)OC[C@@H]2C1` (single isomer, unassigned) [Example 27], the pIC50 on KRasG12C [1] (setting [3]) is 4.92.
For `C=CC(=O)N1CCN2c3ncnc4c(F)c(-c5c(F)ccc6cc[nH]c(=O)c56)c(Cl)c(c34)OC[C@@H]2C1` (single isomer, unassigned) [Example 29], the pIC50 at KRasG12C [1] (setting [3]) is 5.54.
Turning to `Cc1ccc2[nH]ncc2c1-c1c(Cl)c2c3c(ncnc3c1F)N1CCN(C(=O)/C=C/CN(C)C)C[C@H]1CO2` (single isomer, unassigned) [Example 31], the negative logarithm of the IC50 (pIC50) at KRasG12C [1] (setting [3]) was 5.17.
`C=CC(=O)N1C[C@H]2CCOc3c(Cl)c(-c4c(O)cccc4F)c(F)c4ncnc(c34)N2C[C@@H]1C` (single isomer, unassigned) [Example 32]: the negative logarithm of the IC50 (pIC50) on KRasG12C [1] (setting [4]) is 5.50.
As to `C=CC(=O)N1C[C@H]2CCOc3c(Cl)c(-c4c(O)cccc4F)c(F)c4ncnc(c34)N2C[C@@H]1C` (single isomer, unassigned) [Example 33], at KRasG12C [1] (setting [4]), the negative-log IC50 (pIC50) was 6.64.
In the case of `C=CC(=O)N1CCN2c3ncnc4c(F)c(-c5c(C)ccc6cc[nH]c(=O)c56)c(Cl)c(c34)OCCC2C1` (single isomer, unassigned) [Example 34, 8-[3-Chloro-1-fluoro-8-(prop-2-enoyl)-6,6a,7,8,9,10-hexahydro-5H-pyrazino[1′,2′:5,6][1,5]oxazocino[4,3,2-de]quinazolin-2-yl]-7-methylisoquinolin-1(2H)-one], the pIC50 on KRasG12C [1] (setting [3]) was 5.92.
With `C=CC(=O)N1CCN2c3ncnc4c(F)c(-c5c(C)ccc6cc[nH]c(=O)c56)c(Cl)c(c34)OCCC2C1` (single isomer, unassigned) [Example 35, 8-[3-Chloro-1-fluoro-8-(prop-2-enoyl)-6,6a,7,8,9,10-hexahydro-5H-pyrazino[1′,2′:5,6][1,5]oxazocino[4,3,2-de]quinazolin-2-yl]-7-methylisoquinolin-1(2H)-one], the pIC50 at KRasG12C [1] (setting [3]) was 5.07.
On the same count and under the same terms, the same measure for `C=CC(=O)N1CCN2c3ncnc4c(F)c(-c5c(C)ccc6cc[nH]c(=O)c56)c(Cl)c(c34)OCCC2C1` (single isomer, unassigned) [Example 36, 8-[3-Chloro-1-fluoro-8-(prop-2-enoyl)-6,6a,7,8,9,10-hexahydro-5H-pyrazino[1′,2′:5,6][1,5]oxazocino[4,3,2-de]quinazolin-2-yl]-7-methylisoquinolin-1(2H)-one]: 8.70; for `C=CC(=O)N1CCN2c3ncnc4c(F)c(-c5c(C)ccc6cc[nH]c(=O)c56)c(Cl)c(c34)OCCC2C1` (single isomer, unassigned) [Example 37, 8-[3-Chloro-1-fluoro-8-(prop-2-enoyl)-6,6a,7,8,9,10-hexahydro-5H-pyrazino[1′,2′:5,6][1,5]oxazocino[4,3,2-de]quinazolin-2-yl]-7-methylisoquinolin-1(2H)-one]: 6.74.
Consider `C=CC(=O)N1C[C@@H]2CCOc3c(Cl)c(-c4c(O)cccc4F)c(F)c4ncnc(c34)N2C[C@H]1C` (single isomer, unassigned) [Example 38], for which the pIC50 on KRasG12C [1] (setting [4]) is 5.44.
With `C=CC(=O)N1C[C@H]2CCOc3c(Cl)c(-c4c(O)cccc4F)c(F)c4ncnc(c34)N2C[C@H]1C` (single isomer, unassigned) [Example 40], the pIC50 at KRasG12C [1] (setting [4]) was 5.60.
Still for that read-out and setting: the result for `C=CC(=O)N1C[C@H]2CCOc3c(Cl)c(-c4c(O)cccc4F)c(F)c4ncnc(c34)N2C[C@H]1C` (single isomer, unassigned) [Example 41] reads 6.17.
In the case of `C=CC(=O)N1C[C@@H]2CCOc3c(Cl)c(-c4c(O)cccc4F)c(F)c4ncnc(c34)N2C[C@@H]1C` (single isomer, unassigned) [Example 43], the negative-log IC50 (pIC50) on KRasG12C [1] (setting [4]) was 5.54.
Consider `C=CC(=O)N1CCN2c3ncnc4c(Cl)c(-c5c(O)cccc5F)c(F)c(c34)OC[C@@H]2C1` (single isomer, unassigned) [Example 44], for which, at KRasG12C [1] (setting [3]), the negative-log IC50 (pIC50) is 7.21.
For the molecule `C=CC(=O)N1CCN2c3ncnc4c(Cl)c(-c5c(O)cccc5F)c(F)c(c34)OC[C@@H]2C1` (single isomer, unassigned) [Example 45], the pIC50 on KRasG12C [1] (setting [3]) is 7.05.
`C=CC(=O)N1C[C@H]2COc3c(Cl)c(-c4c(C)ccc5[nH]cnc45)c(F)c4ncnc(c34)N2C[C@H]1C` (single isomer, unassigned) [Example 46]: at KRasG12C [1] (setting [3]), the pIC50 was 7.23.
For the molecule `C=CC(=O)N1C[C@H]2COc3c(Cl)c(-c4c(C)ccc5[nH]cnc45)c(F)c4ncnc(c34)N2C[C@H]1C` (single isomer, unassigned) [Example 47], on KRasG12C [1] (setting [3]), the pIC50 is 4.95.
With `C=CC(=O)N1C[C@H]2COc3c(Cl)c(-c4c(C)ccc5cc[nH]c(=O)c45)c(F)c4ncnc(c34)N2C[C@H]1C` (single isomer, unassigned) [Example 48], the pIC50 at KRasG12C [1] (setting [3]) is 7.34.
`C=CC(=O)N1C[C@H]2COc3c(Cl)c(-c4c(C)ccc5cc[nH]c(=O)c45)c(F)c4ncnc(c34)N2C[C@H]1C` (single isomer, unassigned) [Example 49]: on KRasG12C [1] (setting [3]), the pIC50 is 4.52.
On the same count and under the same terms, the result for `Cc1ccc2[nH]cnc2c1-c1c(Cl)c2c3c(ncnc3c1F)N1C[C@@H](C)N(C(=O)/C=C/CN(C)C)C[C@H]1CO2` (single isomer, unassigned) [Example 50] reads 6.85; that for `Cc1ccc2[nH]cnc2c1-c1c(Cl)c2c3c(ncnc3c1F)N1C[C@@H](C)N(C(=O)/C=C/CN(C)C)C[C@H]1CO2` (single isomer, unassigned) [Example 51], 5.76.
